In patent US9944602B2, “Piperidinone herbicides” (E. I. DU PONT DE NEMOURS AND COMPANY, priority 2014, dated 2018):

What was measured:
Assay type in all cases: in vivo
[1] = tested on: barnyardgrass (Echinochloa crus-galli); experiment: Test A preemergence barnyardgrass; settings: 0 to 100 scale
Summary of the method: (§1)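 Seeds sown in loam–sand blend received a directed preemergence soil spray; postemergence plants (2–10 cm, one- to two-leaf stage) were sprayed in the same soil. Chemicals were formulated in non-phytotoxic solvent with surfactant. After ~10 d in greenhouse, injury was rated visually against untreated controls, 0 (no effect) to 100 (complete control).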

[2] = tested on: crabgrass, large (large crabgrass, Digitaria sanguinalis); experiment: Test A preemergence crabgrass, large; settings: 0 to 100 scale
Description: (§2) Seeds of plant species selected from barnyardgrass (Echinochloa crus-galli), kochia (Kochia scoparia), ragweed (common ragweed, Ambrosia elatior), ryegrass, Italian (Italian ryegrass, Lolium multiflorum), crabgrass, large (large crabgrass, Digitaria sanguinalis), foxtail, giant (giant foxtail, Setaria faberii), morningglory (Ipomoea spp.), pigweed (Amaranthus retroflexus), velvetleaf (Abutilon theophrasti), wheat (Triticum aestivum), and corn (Zea mays) were planted into a blend of loam soil and sand and treated preemergence with a directed soil spray using test chemicals formulated in a non-phytotoxic solvent mixture which included a surfactant.
(§3) At the same time, plants selected from these crop and weed species and also blackgrass (Alopecurus myosuroides), and galium (catchweed bedstraw, Galium aparine) were planted in pots containing the same blend of loam soil and sand and treated with postemergence applications of test chemicals formulated in the same manner. Plants ranged in height from 2 to 10 cm and were in the one- to two-leaf stage for the postemergence treatment. Treated plants and untreated controls were maintained in a greenhouse for approximately 10 d, after which time all treated plants were compared to untreated controls and visually evaluated for injury. Plant response ratings, summarized in Table A, are based on a 0 to 100 scale where 0 is no effect and 100 is complete control. A dash (-) response means no test result.

[3] = tested on: foxtail, giant (giant foxtail, Setaria faberii); experiment: Test A preemergence foxtail, giant; settings: 0 to 100 scale, 0 no effect, 100 complete control
Summary of the method: as §1

[4] = tested on: morningglory (Ipomoea spp.); experiment: Test A preemergence morningglory; settings: 0 to 100 scale, 0 no effect, 100 complete control
Description: as §2, §3

[5] = tested on: pigweed (Amaranthus retroflexus); experiment: Test A preemergence pigweed; settings: 0 to 100 scale, 0 no effect, 100 complete control
Summary of the method: as §1

[6] = tested on: velvetleaf (Abutilon theophrasti); experiment: Test A preemergence velvetleaf; settings: 0 to 100 scale, 0 no effect, 100 complete control
Description: as §2, §3

[7] = tested on: wheat (Triticum aestivum); experiment: Test A preemergence wheat; settings: 0 to 100 scale, 0 no effect, 100 complete control
Description: as §2, §3

[8] = tested on: corn (Zea mays); experiment: Test A preemergence corn; settings: 0 to 100 scale
Description: as §2, §3

[9] = tested on: barnyardgrass (Echinochloa crus-galli); experiment: Test A postemergence barnyardgrass; settings: 0 to 100 scale, 0 is no effect, 100 is complete control
Summary of the method: as §1

[10] = tested on: crabgrass, large (large crabgrass, Digitaria sanguinalis); experiment: Test A postemergence crabgrass, large; settings: 0 to 100 scale, 0 is no effect, 100 is complete control
Description: as §2, §3

[11] = tested on: foxtail, giant (giant foxtail, Setaria faberii); experiment: Test A postemergence foxtail, giant; settings: 0 to 100 scale, 0 is no effect, 100 is complete control
Summary of the method: as §1

[12] = tested on: morningglory (Ipomoea spp.); experiment: Test A postemergence morningglory; settings: 0 to 100 scale, 0 is no effect, 100 is complete control
Description: as §2, §3

[13] = tested on: pigweed (Amaranthus retroflexus); experiment: Test A postemergence pigweed; settings: 0 to 100 scale, 0 is no effect, 100 is complete control
Summary of the method: as §1

[14] = tested on: velvetleaf (Abutilon theophrasti); experiment: Test A postemergence velvetleaf; settings: 0 to 100 scale, 0 is no effect, 100 is complete control
Description: as §2, §3

[15] = tested on: wheat (Triticum aestivum); experiment: Test A postemergence wheat; settings: 0 to 100 scale, 0 is no effect, 100 is complete control
Summary of the method: as §1

[16] = tested on: corn (Zea mays); experiment: Test A postemergence corn; settings: 0 to 100 scale, 0 is no effect, 100 is complete control
Summary of the method: as §1

[17] = tested on: rice (Oryza sativa); experiment: Test B flooded paddy test rice; settings: Table B, Flood, 250 g ai/ha, scale 0 to 100
Summary of the method: (§4)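 Visual injury relative to controls was scored after 13 to 15 d in the greenhouse. Treatment was by adding compound straight to flood water 3 cm deep, maintained for the whole test, on plants at the 2-leaf stage.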

[18] = tested on: sedge, umbrella (small-flower umbrella sedge, Cyperus difformis); experiment: Test B flooded paddy test sedge, umbrella; settings: Table B, Flood, 250 g ai/ha, scale 0 to 100
Summary of the method: as §4

[19] = tested on: ducksalad (Heteranthera limosa); experiment: Test B flooded paddy test ducksalad; settings: Table B, Flood, 250 g ai/ha, scale 0 to 100
Summary of the method: as §4

[20] = tested on: barnyardgrass (Echinochloa crus-galli); experiment: Test B flooded paddy test barnyardgrass; settings: Table B, Flood, 250 g ai/ha, scale 0 to 100
Summary of the method: as §4

[21] = 125 g ai/ha, 0 no effect, 100 complete control
[22] = 500 g ai/ha, 0 is no effect, 100 is complete control

Compound: O=C1NCCC(c2ccc(F)cc2)C1C(=O)Nc1ccccc1F (racemic) [Compound 5]
- Barnyardgrass plant response rating [1, 21]: 0
- Plant response rating, Barnyardgrass [1, 22]: 30
- Crabgrass, Large plant response rating [2, 21]: 60
- Plant response rating, Crabgrass, Large [2, 22]: 90
- Foxtail, Giant plant response rating ([3]; 125 g ai/ha): 30
- Foxtail, Giant plant response rating ([3]; 500 g ai/ha): 50
- Morningglory plant response rating ([4]; 125 g ai/ha): 0
- Morningglory plant response rating ([4]; 500 g ai/ha): 0
- Pigweed plant response rating ([5]; 125 g ai/ha): 0
- Pigweed plant response rating ([5]; 500 g ai/ha): 0
- Velvetleaf plant response rating ([6]; 125 g ai/ha): 0
- Velvetleaf plant response rating ([6]; 500 g ai/ha): 0
- Wheat plant response rating ([7]; 125 g ai/ha): 0
- Wheat plant response rating ([7]; 500 g ai/ha): 0
- Corn plant response rating [8, 21]: 0
- Plant response rating, Corn [8, 22]: 0
- Plant response rating, Barnyardgrass ([9]; 125 g ai/ha): 0
- Plant response rating, Barnyardgrass ([9]; 500 g ai/ha): 30
- Plant response rating, Crabgrass, Large ([10]; 125 g ai/ha): 0
- Plant response rating, Crabgrass, Large ([10]; 500 g ai/ha): 0
- Plant response rating, Foxtail, Giant ([11]; 125 g ai/ha): 0
- Plant response rating, Foxtail, Giant ([11]; 500 g ai/ha): 0
- Plant response rating, Morningglory ([12]; 125 g ai/ha): 0
- Plant response rating, Morningglory ([12]; 500 g ai/ha): 0
- Plant response rating, Pigweed ([13]; 125 g ai/ha): 0
- Plant response rating, Pigweed ([13]; 500 g ai/ha): 0
- Plant response rating, Velvetleaf ([14]; 125 g ai/ha): 0
- Plant response rating, Velvetleaf ([14]; 500 g ai/ha): 0
- Plant response rating, Wheat ([15]; 125 g ai/ha): 0
- Plant response rating, Wheat ([15]; 500 g ai/ha): 0
- Plant response rating, Corn ([16]; 125 g ai/ha): 0
- Plant response rating, Corn ([16]; 500 g ai/ha): 0
- Plant response rating [17]: 0
- Plant response rating [18]: 0
- Plant response rating [19]: 0
- Plant response rating [20]: 0
